Assay results from ChEMBL document CHEMBL3352134, “In silico and pharmacological screenings identify novel serine racemase inhibitors” (Bioorg Med Chem Lett, 2014).

Legend:
[1] = target: T1, Serine racemase (Homo sapiens, UniProt Q9GZT4); assay: Binding affinity to serine recemase (unknown origin)
T1 sequence (Q9GZT4 whole entry): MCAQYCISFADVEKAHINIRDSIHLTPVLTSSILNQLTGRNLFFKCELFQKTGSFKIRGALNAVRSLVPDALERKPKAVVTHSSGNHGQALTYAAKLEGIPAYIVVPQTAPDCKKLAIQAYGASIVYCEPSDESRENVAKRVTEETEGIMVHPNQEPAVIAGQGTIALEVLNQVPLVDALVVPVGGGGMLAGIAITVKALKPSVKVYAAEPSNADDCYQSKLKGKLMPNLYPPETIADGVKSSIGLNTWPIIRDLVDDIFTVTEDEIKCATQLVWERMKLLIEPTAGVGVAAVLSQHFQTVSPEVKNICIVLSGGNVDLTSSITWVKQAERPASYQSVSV

[2] = target: T2, Serine racemase (Homo sapiens) (UniProt Q9GZT4); assay: Inhibition of full length human recombinant serine recemase C2DC6D mutant expressed in Escherichia coli BL21 (DE3) assessed as D-serine production at 1 mM after 10 mins by Saccharomyces cerevisiae Dsd1SC based D-serine detection assay
T2 sequence (whole entry): T1 sequence (Q9GZT4 whole entry)

[3] = target: Serine racemase (Homo sapiens, UniProt Q9GZT4); assay: Inhibition of full length human recombinant serine recemase C2DC6D mutant expressed in Escherichia coli BL21 (DE3) assessed as D-serine production after 10 mins by Saccharomyces cerevisiae Dsd1SC based D-serine detection assay

Ki [1]	inhibition [2]	IC50 [3]	SMILES
11 µM			N[C@H](C(=O)O)[C@@H](O)C(=O)O
366 µM			NCC(=O)O [GLYCINE]
33 µM	59%	1310 µM	O=C(O)CC(=O)O [MALONIC ACID]
